The record followed here is patent US20150320773A1, “TREATMENT OF INFLAMMATION” (Vascular Biogenics Ltd., priority 2011, published 2015).

The target of one data set is TLR7 (Mus musculus, UniProt P58681). The following applies: mouse BMDCs; R848; 1.7, 8.5 or 17 μM.
The next data set concerns the target Lp-PLA2 (Homo sapiens, UniProt Q13093). To be noted: concentrations of up to 40 μM; data not shown.
Data set [1] can be described thus: Plasma concentration of VB-201 (Liquid Chromatography-Tandem Mass Spectrometry). The format is in vivo, mouse. To be noted: oral. As for the experimental part: (§1) In this model, injection of thioglycollate to the peritoneal cavity induces a “sterile” inflammatory response recruiting peripheral monocytes to the peritoneum, where they differentiate into macrophages (Li, Y. M., et al., J. Immunol. Methods. 1997; 201:183-188). […] Upon sacrifice, the number and identity of the cells accumulating in the peritoneum was determined by FACS, and plasma samples were taken for quantification by Liquid Chromatography-Tandem Mass Spectrometry. Three days after thioglycollate injection 95% of the cells in the peritoneum were macrophages (F4/80 positive, GR-1 negative cells) (FIG. 26B).

Another data set concerns C57B6J WT mice. Nature of the data set: Thioglycollate-induced peritonitis model (monocyte migration in vivo). More on the design: species or system mouse. The following applies: oral. On the procedure: After 5 days of administration, thioglycollate was injected to the peritoneal cavity of the mice to induce monocyte migration. Four days later, mice were sacrificed and migrating cells were collected from the peritoneum and counted by hemocytometer. Data are mean±SE, collected from 3-4 independent experiments. […] FIG. 26B is a FACS analysis. To characterize their identity, migrating cells were stained with the macrophage marker F4/80 and the neutrophils marker GR-1.
as §1

The test system of the next data set is human Neutrophils. Nature of the data set: Chemotaxis assay of human neutrophils. To be noted: 5 μg/ml; towards LPS or 10% FBS/MCP-3.
The subject of a further data set is monocytes. The experiment in a line: Monocyte adhesion assay (TNFα-stimulated HUVEC). It is filed as cell-based, human. The following applies: 1-10 μg/ml VB-201; compared to the solvent control. As for the experimental part: Matrix plates were pre-seeded with HUVEC and subjected to 4 hour stimulation with 10 ng/ml TNFα to induce expression of adhesion molecules. Freshly isolated monocytes were stained for 30 minutes with 5 µM calcein AM (Invitrogen) in serum free RPMI and then washed twice with PBS to remove excess dye. […] 10^5 stained monocytes were loaded per well into 96-well dishes and allowed to adhere for 15 minutes. Following 4 washes with PBS, adherent monocyte intensity was read using FLUOROSKAN Ascent FL device using excitation at 485 nm and emission at 538 nm.
Next, we examined whether VB-201 or oxidized PAPC treatment of monocytes affects their interaction with endothelial cells. HUVEC were plated in 96-wells and treated with TNFαc to induce expression of adhesion molecules. […] Following extensive washes, adherent monocytes were quantified by fluorescence.

The next data set deals with human monocytes. The experiment in a line: ROS formation in human monocytes (DCF, FACS). The format is cell-based. The following applies: overnight; VB-201 10 μg/ml, PGPC 10 μg/ml, OxPAPC 100 μg/ml; relative to PBS. As for the experimental part:
Detection of ROS was performed through FACS quantification of the oxidation product dichlorodihydrofluorescein (DCF). Data are mean±SD from 3-4 experiments performed in duplicates. FIG. 23B is a histogram from a representative experiment showing DCF levels in treated cells.

For the next data set, the system named is RAW 264.7 macrophages. The following applies: 0, 8.5 or 17 μM VB-201; streptavidin-APC. The source says: Cells were washed and LPS binding was detected using streptavidin-APC.
CD14 is known to bind to lipopolysaccharide (LPS).

For data set [2], the target named is TLR2:TLR1 dimer, TLR2:TLR6 dimer (Mus musculus, UniProt Q9QUN7). To be noted: 1.7, 8.5 or 17 μM.
Data set [3] has as its system kinases, phosphatases, ion channels/ransporters. Nature of the data set: Selectivity: effect on activity of additional proteins.

TLR2:TLR1 dimer, TLR2:TLR6 dimer, sequence (Q9QUN7 25-784): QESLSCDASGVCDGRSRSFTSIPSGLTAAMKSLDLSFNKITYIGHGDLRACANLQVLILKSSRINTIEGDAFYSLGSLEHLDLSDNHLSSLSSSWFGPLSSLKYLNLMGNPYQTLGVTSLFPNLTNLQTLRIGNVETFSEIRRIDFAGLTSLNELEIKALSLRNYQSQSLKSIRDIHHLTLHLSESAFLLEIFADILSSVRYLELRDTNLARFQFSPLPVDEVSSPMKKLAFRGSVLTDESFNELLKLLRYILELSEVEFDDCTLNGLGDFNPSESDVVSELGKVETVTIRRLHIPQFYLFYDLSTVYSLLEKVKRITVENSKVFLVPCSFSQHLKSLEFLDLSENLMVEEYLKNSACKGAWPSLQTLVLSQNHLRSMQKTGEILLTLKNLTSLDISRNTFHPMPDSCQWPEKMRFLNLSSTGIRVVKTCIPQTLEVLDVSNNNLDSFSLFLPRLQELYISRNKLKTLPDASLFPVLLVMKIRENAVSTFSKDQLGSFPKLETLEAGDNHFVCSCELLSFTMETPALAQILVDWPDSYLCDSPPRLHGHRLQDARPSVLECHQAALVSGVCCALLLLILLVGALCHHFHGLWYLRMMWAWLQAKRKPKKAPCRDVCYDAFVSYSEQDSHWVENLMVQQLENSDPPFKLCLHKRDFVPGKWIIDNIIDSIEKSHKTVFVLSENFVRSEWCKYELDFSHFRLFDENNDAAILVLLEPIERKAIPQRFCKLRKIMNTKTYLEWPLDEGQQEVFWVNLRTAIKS
TLR7, sequence (P58681 27-1050): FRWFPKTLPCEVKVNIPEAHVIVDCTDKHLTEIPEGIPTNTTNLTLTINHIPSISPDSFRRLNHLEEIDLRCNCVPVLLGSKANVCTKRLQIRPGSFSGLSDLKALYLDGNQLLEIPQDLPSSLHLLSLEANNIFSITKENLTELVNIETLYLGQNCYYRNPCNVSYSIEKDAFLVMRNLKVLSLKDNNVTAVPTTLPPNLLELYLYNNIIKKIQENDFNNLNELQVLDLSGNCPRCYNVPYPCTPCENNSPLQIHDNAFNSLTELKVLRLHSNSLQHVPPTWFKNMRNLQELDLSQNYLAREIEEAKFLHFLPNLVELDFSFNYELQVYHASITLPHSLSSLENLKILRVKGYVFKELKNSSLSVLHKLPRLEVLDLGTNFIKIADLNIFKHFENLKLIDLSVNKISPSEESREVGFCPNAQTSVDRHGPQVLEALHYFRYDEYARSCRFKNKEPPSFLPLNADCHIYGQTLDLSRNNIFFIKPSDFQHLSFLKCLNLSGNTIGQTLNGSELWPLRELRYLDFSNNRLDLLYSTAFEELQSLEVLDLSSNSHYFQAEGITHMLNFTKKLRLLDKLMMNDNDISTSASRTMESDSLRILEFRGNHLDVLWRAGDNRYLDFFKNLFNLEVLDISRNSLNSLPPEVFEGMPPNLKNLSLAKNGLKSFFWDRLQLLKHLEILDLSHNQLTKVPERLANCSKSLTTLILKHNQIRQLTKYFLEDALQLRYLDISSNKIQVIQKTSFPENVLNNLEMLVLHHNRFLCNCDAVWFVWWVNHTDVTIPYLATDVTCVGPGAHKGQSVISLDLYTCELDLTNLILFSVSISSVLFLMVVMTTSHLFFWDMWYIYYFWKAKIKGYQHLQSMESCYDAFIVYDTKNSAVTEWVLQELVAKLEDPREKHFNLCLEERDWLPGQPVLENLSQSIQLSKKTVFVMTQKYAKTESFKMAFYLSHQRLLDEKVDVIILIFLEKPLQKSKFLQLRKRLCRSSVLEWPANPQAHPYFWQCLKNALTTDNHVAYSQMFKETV
Lp-PLA2, sequence (Q13093 22-441): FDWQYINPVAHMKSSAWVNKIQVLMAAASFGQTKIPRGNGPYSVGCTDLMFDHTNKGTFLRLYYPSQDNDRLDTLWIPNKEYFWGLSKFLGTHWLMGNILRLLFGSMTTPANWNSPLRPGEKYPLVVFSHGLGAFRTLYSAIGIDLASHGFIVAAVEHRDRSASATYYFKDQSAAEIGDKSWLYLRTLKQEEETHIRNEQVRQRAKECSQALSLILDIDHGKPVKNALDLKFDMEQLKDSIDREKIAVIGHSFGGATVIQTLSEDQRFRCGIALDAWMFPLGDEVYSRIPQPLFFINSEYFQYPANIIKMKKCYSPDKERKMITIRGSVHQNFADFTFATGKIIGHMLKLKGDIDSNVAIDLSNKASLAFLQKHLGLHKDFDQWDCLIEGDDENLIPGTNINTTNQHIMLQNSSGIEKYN
Description for human Neutrophils: Data are mean±SD from 3 different experiments performed in triplicates. […] Data are mean±SD from 4 different donors tested in triplicates.

Consider `CCCCCCCCCCCCCCCCOC[C@H](COP(=O)([O-])OCC[N+](C)(C)C)OCCCCC(=O)O` [VB-201, (R)-1-hexadecyl-2-(4′-carboxyl)butyl-sn-glycero-3-phosphocholine], for which the “p38 phosphorylation following activation of TLR7” value at TLR7 is reported as “no apparent effect”. Also, the “inhibition of Lp-PLA2” value against Lp-PLA2 is reported as “No inhibition”. In data set [1] (0.4 mg/kg), the “VB-201 in mice plasma” value was 0.8 ± 0.3 µmol/L. Also, in data set [1] (4 mg/kg), the VB-201 plasma level amounted to 8.5 ± 1.5 µmol/L. Besides, the “inhibition of peritoneal macrophage accumulation” value is reported as “no inhibitory effect” with C57B6J WT mice (0.04 mg/kg/day) and ~25% in the data set on C57B6J WT mice (0.4 mg/kg). The “reduction in the number of peritoneal macrophages relative to PBS-treated animals” value in the data set with C57B6J WT mice (4 mg/kg) is reported as > 60%. Besides, the “chemotaxis of human Neutrophils” value in the data set on human Neutrophils is reported as “no effect on chemotaxis”. Further, the “monocyte adhesion to HUVEC” value with monocytes is given as “had no effect on their adhesion to HUVEC”. Further, the “ROS formation in human monocytes” value in the data set with human monocytes is listed as “no effect on ROS formation”. The “binding of biotinylated LPS to macrophages” value with RAW 264.7 macrophages was “inhibited binding of biotinylated LPS to macrophages in a dose dependent manner”. The “p38 phosphorylation following activation of dimers of TLR2” value in data set [2] (mouse BMDCs, Pam3CSK4, PGN) is “inhibited p^38 phosphorylation in a dose-dependent manner”. Moreover, the “activation of p38, ERK1/2 and the NFκB pathway following activation of TLR2:TLR1 dimer” value in [2] (mouse peritoneal macrophages, Pam3CSK4) was “inhibited activation of p38, ERK1/2 and the NFκB pathway in a dose-dependent manner”. In addition, the “inhibition of kinases, phosphatases, ion channels/ransporters” value in data set [3] is reported as “No inhibition”.
